# Test results: patent US7833967B2, “Synthetic antimicrobial polypeptides” (priority 2003, dated 2010)
# System: E. coli TOP10
# Assay: Suicide expression system (SES) growth inhibition
# Type: cell-based
# Conditions: Table 5; mixed-motif library, re-tested in the Bioscreen C
row,Substance,Growth inhibition (%)
1,270 (RRRPPRLPRPLPFRPPPRVPRPVPVRP; Synthetic antimicrobial peptide) [compound 270],90
2,271 (RRRPPRLPRPLPFRPPPRVPRPVPVRP; Synthetic antimicrobial peptide) [compound 271],97
3,272 (RRRPPRLPRPLPIRPPPRFPRPIPVRP; Synthetic antimicrobial peptide) [compound 272],91
4,273 (RRRPPRLPRPLPIRPPPRFPRPVPLRP; Synthetic antimicrobial peptide) [compound 273],92
5,274 (RRRPPRLPRPLPIRPPPRFPRPVPVRP; Synthetic antimicrobial peptide) [compound 274],93
6,275 (RRRPPRLPRPLPIRPPPRLPRPFPVRP; Synthetic antimicrobial peptide) [compound 275],92
7,276 (RRRPPRLPRPLPIRPPPRLPRPVPVRP; Synthetic antimicrobial peptide) [compound 276],94
8,277 (RRRPPRLPRPLPIRPPPRVPRPFPIRP; Synthetic antimicrobial peptide) [compound 277],91
9,278 (RRRPPRLPRPLPIRPPPRVPRPLPFRP; Synthetic antimicrobial peptide) [compound 278],98
10,279 (RRRPPRLPRPLPIRPPPRVPRPLPLRP; Synthetic antimicrobial peptide) [compound 279],91
11,280 (RRRPPRLPRPLPLRPPPRFPRPFPVRP; Synthetic antimicrobial peptide) [compound 280],97
12,281 (RRRPPRLPRPLPLRPPPRFPRPVPLRP; Synthetic antimicrobial peptide) [compound 281],91
13,282 (RRRPPRLPRPLPLRPPPRLPHPIPFRP; Synthetic antimicrobial peptide) [compound 282],95
14,283 (RRRPPRLPRPLPVRPPPRFPRPVPFRP; Synthetic antimicrobial peptide) [compound 283],95
15,284 (RRRPPRLPRPLPVRPPPRFPRPVPVRP; Synthetic antimicrobial peptide) [compound 284],89
16,285 (RRRPPRLPRPLPVRPPPRIPRPFPVRP; Synthetic antimicrobial peptide) [compound 285],91
17,286 (RRRPPRLPRPLPVRPPPRIPRPLPLRP; Synthetic antimicrobial peptide) [compound 286],95
18,287 (RRRPPRLPRPLPVRPPPRLPRPIPIRP; Synthetic antimicrobial peptide) [compound 287],95
19,288 (RRRPPRLPRPLPVRPPPRVPRPFPLRP; Synthetic antimicrobial peptide) [compound 288],96
20,289 (RRRPPRLPRPLPVRPPPRVPRPFPVRP; Synthetic antimicrobial peptide) [compound 289],95
21,290 (RRRPPRLPRPLPVRPPPRVPRPLPLRP; Synthetic antimicrobial peptide) [compound 290],94
22,291 (RRRPPRLPRPLPVRPPPRVPRPVPFRP; Synthetic antimicrobial peptide) [compound 291],90
23,292 (RRRPPRLPRPLPVRPPPRVPRPVPFRP; Synthetic antimicrobial peptide) [compound 292],93
24,293 (RRRPPRLPRPVPFRPPPRFPRPFPIRP; Synthetic antimicrobial peptide) [compound 293],93
25,294 (RRRPPRLPRPVPFRPPPRFPRPVPLRP; Synthetic antimicrobial peptide) [compound 294],95
26,295 (RRRPPRLPRPVPFRPPPRIPRPFPLRP; Synthetic antimicrobial peptide) [compound 295],59
